Results as given in PubChem BioAssay AID1259407 (Chemical Carcinogenesis Research Information System (CCRIS), 2018).
Calls of active or inactive are those of the source. The rule behind the calls is not given here.

Tested on: CCRIS mutagenicity, Ames/micronucleus/aberration tests
Test: CCRIS mutagenicity studies
Details: Test System: AMES SALMONELLA TYPHIMURIUM
[1] = Strain/Indicator: TA98, Metabolic Activation: NONE, Method: PREINCUBATION
[2] = Strain/Indicator: TA100, Metabolic Activation: NONE, Method: PREINCUBATION
[3] = Strain/Indicator: TA100, Metabolic Activation: NONE, Method: STANDARD PLATE

`C(=C/c1ccccc1)/c1ccccc1` was tested. Which mutagenic call (Strain/Indicator: TA98, Metabolic Activation: HAMSTER, LIVER, S-9, AROCLOR 1254, Method: PREINCUBATION) did it give?
The mutagenic call was “inactive; negative”.

And the mutagenic call [1]?
Its mutagenic call is “inactive; negative”.

And the mutagenic call (Strain/Indicator: TA98, Metabolic Activation: RAT, LIVER, S-9, AROCLOR 1254, Method: PREINCUBATION)?
Its mutagenic call is “inactive; negative”.

And the mutagenic call (Strain/Indicator: TA100, Metabolic Activation: HAMSTER, LIVER, S-9, AROCLOR 1254, Method: PREINCUBATION)?
The mutagenic call was “inactive; negative”.

And the mutagenic call [2]?
The mutagenic call was “inactive; negative”.

What about the mutagenic call (Strain/Indicator: TA100, Metabolic Activation: RAT, LIVER, S-9, AROCLOR 1254, Method: PREINCUBATION) of the same compound?
The mutagenic call was “inactive; negative”.

What about the mutagenic call (Strain/Indicator: TA1535, Metabolic Activation: HAMSTER, LIVER, S-9, AROCLOR 1254, Method: PREINCUBATION) of the same compound?
Its mutagenic call is “inactive; negative”.

And the mutagenic call (Strain/Indicator: TA1535, Metabolic Activation: NONE, Method: PREINCUBATION)?
The mutagenic call was “inactive; negative”.

And the mutagenic call (Strain/Indicator: TA1535, Metabolic Activation: RAT, LIVER, S-9, AROCLOR 1254, Method: PREINCUBATION)?
The mutagenic call was “inactive; negative”.

And the mutagenic call (Strain/Indicator: TA1537, Metabolic Activation: HAMSTER, LIVER, S-9, AROCLOR 1254, Method: PREINCUBATION)?
Its mutagenic call is “inactive; negative”.

What about the mutagenic call (Strain/Indicator: TA1537, Metabolic Activation: NONE, Method: PREINCUBATION) of the same compound?
Its mutagenic call is “inactive; negative”.

And the mutagenic call (Strain/Indicator: TA1537, Metabolic Activation: RAT, LIVER, S-9, AROCLOR 1254, Method: PREINCUBATION)?
The mutagenic call was “inactive; negative”.

How did the mutagenic call [2] turn out when `Cc1cc2c(c3ccc4ccccc4c13)[C@@H]1O[C@@H]1[C@H](O)[C@H]2O` was run?
Its mutagenic call is “active; positive”.

How did the mutagenic call (Strain/Indicator: TA98, Metabolic Activation: NONE, Method: STANDARD PLATE) turn out when `CC(=O)O[C@H]1[C@@]2(O)CC(C)(C)CC2=C(C=O)[C@@]2(C=O)C[C@@]12C` was run?
Its mutagenic call is “inactive; negative”.

What about the mutagenic call [3] of the same compound?
The mutagenic call was “active; positive”.

What about the mutagenic call (Strain/Indicator: TA2637, Metabolic Activation: NONE, Method: STANDARD PLATE) of the same compound?
Its mutagenic call is “inactive; negative”.

With `Cc1cccc([N+](=O)[O-])c1C` as the compound, how does the mutagenic call [1] read?
Its mutagenic call is “inactive; negative”.

And the mutagenic call (Strain/Indicator: TA98, Metabolic Activation: RAT, LIVER, S-9, KANECHLOR 500, Method: PREINCUBATION)?
Its mutagenic call is “inactive; negative”.

And the mutagenic call [2]?
Its mutagenic call is “inactive; negative”.

What about the mutagenic call (Strain/Indicator: TA100, Metabolic Activation: RAT, LIVER, S-9, KANECHLOR 500, Method: PREINCUBATION) of the same compound?
Its mutagenic call is “inactive; negative”.

How did the mutagenic call [3] turn out when `Cn1cnc(-c2ccccc2)c1[N+](=O)[O-]` was run?
The mutagenic call was “active; positive”.

Which mutagenic call (Strain/Indicator: TA100, Metabolic Activation: HAMSTER, LIVER, S-9, 3-METHYLCHOLANTHRENE, Method: PREINCUBATION) does the source give for `CC1CN(N=O)CC(C)O1` (configuration not stated) here?
The mutagenic call was “active; positive”.

And the mutagenic call (Strain/Indicator: TA100, Metabolic Activation: HAMSTER, LIVER, S-9, PHENOBARBITAL, Method: PREINCUBATION)?
Its mutagenic call is “active; positive”.

What about the mutagenic call (Strain/Indicator: TA100, Metabolic Activation: HAMSTER, LIVER, S-9, Method: PREINCUBATION) of the same compound?
Its mutagenic call is “active; positive”.

What about the mutagenic call (Strain/Indicator: TA100, Metabolic Activation: HUMAN, LIVER, S-9, Method: PREINCUBATION) of the same compound?
Its mutagenic call is “inactive; negative”.

And the mutagenic call (Strain/Indicator: TA100, Metabolic Activation: MONKEY, LIVER, S-9, Method: PREINCUBATION)?
Its mutagenic call is “active; positive”.

What about the mutagenic call (Strain/Indicator: TA100, Metabolic Activation: MOUSE, LIVER, S-9, 3-METHYLCHOLANTHRENE, Method: PREINCUBATION) of the same compound?
Its mutagenic call is “active; positive”.

What about the mutagenic call (Strain/Indicator: TA100, Metabolic Activation: MOUSE, LIVER, S-9, PHENOBARBITAL, Method: PREINCUBATION) of the same compound?
Its mutagenic call is “active; positive”.

And the mutagenic call (Strain/Indicator: TA100, Metabolic Activation: MOUSE, LIVER, S-9, Method: PREINCUBATION)?
The mutagenic call was “active; positive”.

And the mutagenic call [2]?
The mutagenic call was “inactive; negative”.

What about the mutagenic call (Strain/Indicator: TA100, Metabolic Activation: RABBIT, LIVER, S-9, Method: PREINCUBATION) of the same compound?
The mutagenic call was “active; positive”.

And the mutagenic call (Strain/Indicator: TA100, Metabolic Activation: RAT, LIVER, CYTOSOL, PCB, Method: PREINCUBATION)?
The mutagenic call was “inactive; negative”.

And the mutagenic call (Strain/Indicator: TA100, Metabolic Activation: RAT, LIVER, MICROSOMES AND CYTOSOL, PCB, Method: PREINCUBATION)?
Its mutagenic call is “active; positive”.

And the mutagenic call (Strain/Indicator: TA100, Metabolic Activation: RAT, LIVER, MICROSOMES AND G6PDH, PCB, Method: PREINCUBATION)?
Its mutagenic call is “active; positive”.

And the mutagenic call (Strain/Indicator: TA100, Metabolic Activation: RAT, LIVER, MICROSOMES, PCB, Method: PREINCUBATION)?
Its mutagenic call is “active; positive”.

What about the mutagenic call (Strain/Indicator: TA100, Metabolic Activation: RAT, LIVER, S-9 (HEATED), PCB, Method: PREINCUBATION) of the same compound?
Its mutagenic call is “inactive; negative”.

What about the mutagenic call (Strain/Indicator: TA100, Metabolic Activation: RAT, LIVER, S-9, 3-METHYLCHOLANTHRENE, Method: PREINCUBATION) of the same compound?
The mutagenic call was “active; positive”.

And the mutagenic call (Strain/Indicator: TA100, Metabolic Activation: RAT, LIVER, S-9, PCB, Method: PREINCUBATION)?
The mutagenic call was “active; positive”.

What about the mutagenic call (Strain/Indicator: TA100, Metabolic Activation: RAT, LIVER, S-9, PHENOBARBITAL, Method: PREINCUBATION) of the same compound?
The mutagenic call was “active; positive”.

What about the mutagenic call (Strain/Indicator: TA100, Metabolic Activation: RAT, LIVER, S-9, Method: PREINCUBATION) of the same compound?
The mutagenic call was “active; positive”.

What about the mutagenic call (Strain/Indicator: TA100, Metabolic Activation: RAT, LIVER, S-9 WITHOUT NADP+, PCB, Method: PREINCUBATION) of the same compound?
The mutagenic call was “inactive; negative”.

What about the mutagenic call (Strain/Indicator: TA100, Method: PREINCUBATION) of the same compound?
The mutagenic call was “active; positive”.
